From patent publication US20140187426A1, “CROP ENHANCEMENT” (SYNGENTA PARTICIPATIONS AG, priority 2011, published 2014)

Legend:
Type in all cases: in vivo
creeping bentgrass = test: Turf colour assessment, golf course green trial; settings: for Plant Colour 14DAA (2) / Plant Colour 14 DAA (3) / Plant Colour 7AA (2): scale 1 (poor) to 10 (good), 3 apps - 4 week interval; for Plant Colour 14DAA (2): 14 days after application 2; for Plant Colour 14 DAA (3): 14 days after application 3; for Plant Colour 7AA (2): after application 2
Source text: A trial was setup to assess crop (turf) enhancement effects of cis-jasmone on a creeping bentgrass golf course green. Each treatment was applied as a spray to the turfgrass. Assessments of turf colour and quality were made at several intervals after application; the results are expressed on a scale of 1 (poor) to 10 (good) in Table 5.

hybrid bermudagrass = test: Turf growth (clipping weights), golf course fairway trial; settings: for Clipping wt (g) 32 DAA (1): 3 apps - 4 week interval, 32 days after application 1
Source text: A trial was setup to assess crop enhancement effects of cis-jasmone on a hybrid bermudagrass golf course […]. Each treatment was applied as a spray to the turfgrass. Assessments of turf growth (clipping weights in grams) were made at several intervals after application.

[1] = system: summer oil seed rape variety Senator; test: Glasshouse trial, leaf chlorophyll content (Dualex), variety Senator
Source text: (§1) A glasshouse trial was setup to assess growth effects of cis-jasmone on summer oil seed rape varieties Jumbo and Senator. Each treatment was applied as a spray to the leaves of the plant at plant growth stage 13 (3 leaves). Three replicates of 2 plants were sowed in pots in the greenhouse. Assessments of chlorophyll content of the leaves were made using the Dualex technique 25 days after application; the results are expressed as Dualex units of Chlorophyll in Table 8.

winter rye (Reknit) = test: Glasshouse trial, lodging of winter rye after leaf spray; settings: for % lodging 30 DAA Winter rye: leaf spray at growth stage 30, 30 days after application
Source text: (§2) A glasshouse trial was setup to assess growth effects of cis-jasmone on summer barley (Pasadena) and winter rye (Reknit).
(§3) Each treatment was applied as a spray to the leaves of the plant at plant growth stage 30 (start of stem elongation). Assessments of lodging were made 30 days after application; the results are expressed as percentage lodging in Table 2.

[2] = system: summer oil seed rape variety Jumbo; test: Glasshouse trial, leaf chlorophyll content (Dualex), variety Jumbo
Source text: as §1

Poa annua [3] = test: Turf colour assessment, golf course fairway trial
Source text: (§4) A trial was setup to assess crop (turf) enhancement effects of cis-jasmone on Poa annua in a golf course […]. Each treatment was applied as a spray to the turfgrass. Assessments of turf colour and quality were made at several intervals after application; the results are expressed on a scale of 1 (poor) to 10 (good).

Poa annua [4] = test: Turf quality assessment, golf course fairway trial
Source text: as §4

summer barley (Pasadena) = test: Glasshouse trial, lodging of summer barley after leaf spray; settings: for % lodging 30 DAA Summary barley: leaf spray at growth stage 30, 30 days after application
Source text: as §2, §3

[5] = during the entire study, versus untreated check
[6] = scale 1 (poor) to 10 (good), 50 g ai/ha, 4 applications on a 4 week schedule, 9-Jul
[7] = scale 1 (poor) to 10 (good), 50 g ai/ha, 4 applications on a 4 week schedule, 16-Jul
[8] = scale 1 (poor) to 10 (good), 50 g ai/ha, 4 applications on a 4 week schedule, 17-Jun

**Q.** Which results are given for `CC/C=C\CC1=C(C)CCC1=O` [Cis-jasmone (CJN), cis-jasmone]?
**A.** effect on turf colour (in words) (creeping bentgrass; [5]): significantly increased turf colour; Plant Colour 14DAA (2) (creeping bentgrass; 50 g ai/ha): 5.40 e; Plant Colour 14 DAA (3) (creeping bentgrass; 50 g ai/ha): 6.00 c; Plant Colour 7AA (2) (creeping bentgrass; 50 g ai/ha): 5.6; Plant Colour 14DAA (2) (creeping bentgrass; 100 g ai/ha): 6.00 c; Plant Colour 14 DAA (3) (creeping bentgrass; 100 g ai/ha): 6.00 c; Plant Colour 7AA (2) (creeping bentgrass; 100 g ai/ha): 5.7; Plant Colour 14DAA (2) (creeping bentgrass; 150 g ai/ha): 6.00 c; Plant Colour 14 DAA (3) (creeping bentgrass; 150 g ai/ha): 6.00 c; Plant Colour 7AA (2) (creeping bentgrass; 150 g ai/ha): 6.08; Clipping wt (g) 32 DAA (1) (hybrid bermudagrass; 50 g ai/ha): 37 ab g; Clipping wt (g) 32 DAA (1) (hybrid bermudagrass; 100 g ai/ha): 45 a g; Clipping wt (g) 32 DAA (1) (hybrid bermudagrass; 150 g ai/ha): 25 c g; effect on clipping weights (in words) (hybrid bermudagrass; early in the trial, versus untreated check): significantly increased clipping weights; effect on chlorophyll content (in words) [1]: not; % lodging 30 DAA Winter rye (winter rye (Reknit); 150 g AI/ha): 30.0%; % lodging 30 DAA Winter rye (winter rye (Reknit); 300 g AI/ha): 23.3%; effect on lodging (in words) (winter rye (Reknit); winter rye, versus untreated check): significantly increases lodging; effect on chlorophyll content (in words) [2]: increased chlorophyll content; effect on turf colour (in words) (Poa annua [3]; [5]): significantly increased turf colour; Turf colour 4-June (Poa annua [3]; scale 1 (poor) to 10 (good), 50 g ai/ha, 4 applications on a 4 week schedule, 4-June): 7.80 b; Turf colour 9-Jul (Poa annua [3]; [6]): 8.2 a; Turf colour 10-June (Poa annua [3]; scale 1 (poor) to 10 (good), 50 g ai/ha, 4 applications on a 4 week schedule, 10-June): 8.16 a; Turf colour 14-May (Poa annua [3]; scale 1 (poor) to 10 (good), 50 g ai/ha, 4 applications on a 4 week schedule, 14-May): 5.8 b; Turf colour 16-Jul (Poa annua [3]; [7]): 7.96 a; Turf colour 17-Jun (Poa annua [3]; [8]): 7.80 a; Turf colour 21-May (Poa annua [3]; scale 1 (poor) to 10 (good), 50 g ai/ha, 4 applications on a 4 week schedule, 21-May): 8.08 b; Turf colour 28-May (Poa annua [3]; scale 1 (poor) to 10 (good), 50 g ai/ha, 4 applications on a 4 week schedule, 28-May): 6.00 b; effect on turf quality (in words) (Poa annua [4]; [5]): significantly increased turf quality; Turf quality 3-Jul (Poa annua [4]; scale 1 (poor) to 10 (good), 50 g ai/ha, 4 applications on a 4 week schedule, 3-Jul): 8.46 a; Turf quality 9-Jul (Poa annua [4]; [6]): 8.42 a; Turf quality 10-Jun (Poa annua [4]; scale 1 (poor) to 10 (good), 50 g ai/ha, 4 applications on a 4 week schedule, 10-Jun): 8.2 a; Turf quality 16-Jul (Poa annua [4]; [7]): 8.1 a; Turf quality 17-Jun (Poa annua [4]; [8]): 8.8 a; Turf quality 23-Jul (Poa annua [4]; scale 1 (poor) to 10 (good), 50 g ai/ha, 4 applications on a 4 week schedule, 23-Jul): 8.18 a; Turf quality 24-Jun (Poa annua [4]; scale 1 (poor) to 10 (good), 50 g ai/ha, 4 applications on a 4 week schedule, 24-Jun): 8.74 a; Turf quality 31-Jul (Poa annua [4]; scale 1 (poor) to 10 (good), 50 g ai/ha, 4 applications on a 4 week schedule, 31-Jul): 7.96 a; % lodging 30 DAA Summary barley (summer barley (Pasadena); 150 g AI/ha): 70.0%; % lodging 30 DAA Summary barley (summer barley (Pasadena); 300 g AI/ha): 60.0%; initial growth (in words) (summer barley (Pasadena); summer barley): faster initial growth; effect on lodging (in words) (summer barley (Pasadena); summer barley, versus untreated check): significantly increases lodging
